This is an account of results in ChEMBL document CHEMBL1649349, “Discovery of a novel nitroimidazolyl-oxazolidinone hybrid with potent anti Gram-positive activity: Synthesis and antibacterial evaluation” (Eur J Med Chem, 2011).

The subject of one assay is Klebsiella pneumoniae. Kind of assay: Antimicrobial activity against Klebsiella pneumoniae ATCC 10031 by conventional agar-dilution method. The assay is classed as functional.
In the next assay the test system is Staphylococcus xylosus. Kind of assay: Antimicrobial activity against Staphylococcus xylosus ATCC 2997 by conventional agar-dilution method. Type of assay: functional.
In the next assay the test system is Staphylococcus warneri. Kind of assay: Antimicrobial activity against Staphylococcus warneri ATCC 27836 by conventional agar-dilution method. Type of assay: functional.
The nature of assay [1]: Cytotoxicity against mouse NIH/3T3 cells by MTT colorimetric assay. Type of assay: cell-based. The conditions noted are these: NIH3T3. For orientation: Formazan colour is commonly taken as a measure of viable cells.
A further assay deals with Mammaliicoccus lentus. As to the kind of experiment: Antimicrobial activity against Staphylococcus lentus ATCC 29070 by conventional agar-dilution method. Type of assay: functional.
Assay [2] relates to Staphylococcus aureus. Kind of assay: Antimicrobial activity against Staphylococcus aureus ATCC 6538p by conventional agar-dilution method. Type of assay: functional.
Another assay deals with Pseudomonas aeruginosa. Kind of assay: Antimicrobial activity against Pseudomonas aeruginosa ATCC 9027 by conventional agar-dilution method. Type of assay: functional.
In assay [3] the test system is Staphylococcus aureus. Kind of assay: Antimicrobial activity against methicillin-resistant Staphylococcus aureus 17 by conventional agar-dilution method. Type of assay: functional.
In assay [4] the test system is Staphylococcus aureus. Kind of assay: Antimicrobial activity against methicillin-resistant Staphylococcus aureus 5 by conventional agar-dilution method. The assay is classed as functional.
The test system of a further assay is Escherichia coli. Kind of assay: Antimicrobial activity against Escherichia coli ATCC 8739 by conventional agar-dilution method. Type of assay: functional.
For the next assay, the system named is Micrococcus luteus. As to the kind of experiment: Antimicrobial activity against Micrococcus luteus ATCC 9341 by conventional agar-dilution method. The assay is classed as functional.
Assay [5] concerns Staphylococcus aureus. As to the kind of experiment: Antimicrobial activity against methicillin-resistant Staphylococcus aureus 3 by conventional agar-dilution method. The assay is classed as functional.
In assay [6] the test system is Corynebacterium glutamicum. Kind of assay: Antimicrobial activity against Corynebacterium glutamicum ATCC 13032 by conventional agar-dilution method. The assay is classed as functional.
The subject of another assay is Bacillus subtilis. Kind of assay: Antimicrobial activity against Bacillus subtilis PTCC 1023 by conventional agar-dilution method. The assay is classed as functional.
Assay [7] deals with Staphylococcus saprophyticus. As to the kind of experiment: Antimicrobial activity against Staphylococcus saprophyticus ATCC 15305 by conventional agar-dilution method. The assay is classed as functional.
Assay [8] concerns Staphylococcus epidermidis. As to the kind of experiment: Antimicrobial activity against Staphylococcus epidermidis ATCC 12228 by conventional agar-dilution method. The assay is classed as functional.

As usually defined, the MIC is the least concentration at which growth counts as inhibited. A high value points to a need for much substance. By IC50 is commonly meant the concentration at which inhibition is half-maximal. Higher therefore signals weaker potency in that assay.

≈ marks a conversion by molar mass, not a printed value. Some results are limits rather than exact numbers.

With `CC(=O)NC[C@H]1CN(c2ccc(N3CCN(c4nnc(-c5ccc([N+](=O)[O-])s5)s4)CC3)c(F)c2)C(=O)O1`, the MIC against Klebsiella pneumoniae is 100 µg/mL (≈ 183 µM); against Staphylococcus xylosus it was 0.098 µg/mL (≈ 0.179 µM); against Staphylococcus warneri it was 0.049 µg/mL (≈ 0.0895 µM); in the assay on Mammaliicoccus lentus, 0.098 µg/mL (≈ 0.179 µM); with Staphylococcus aureus [2] it was 0.098 µg/mL (≈ 0.179 µM); with Pseudomonas aeruginosa, greater than 100 µg/mL. The MIC with Staphylococcus aureus [3] was 0.098 µg/mL (≈ 0.179 µM); against Staphylococcus aureus [4], 6.25 µg/mL (≈ 11.4 µM); with Escherichia coli it was greater than 100 µg/mL; against Micrococcus luteus, 6.25 µg/mL (≈ 11.4 µM); with Staphylococcus aureus [5], 0.195 µg/mL (≈ 0.356 µM); in assay [6], 6.25 µg/mL (≈ 11.4 µM). Besides, the MIC came to 0.781 µg/mL (≈ 1.43 µM) against Bacillus subtilis, 0.195 µg/mL (≈ 0.356 µM) in [7] and 0.024 µg/mL (≈ 0.0438 µM) in assay [8]. In assay [1], the IC50 was found to be 184 µg/mL (≈ 336 µM).

Take `CC(=O)NC[C@H]1CN(c2ccc(N3CCN(c4nnc(-c5ccc([N+](=O)[O-])o5)s4)CC3)c(F)c2)C(=O)O1`: the minimal inhibitory concentration (MIC) in the assay on Klebsiella pneumoniae was 50 µg/mL (≈ 94.1 µM); against Staphylococcus xylosus it was 0.024 µg/mL (≈ 0.0452 µM); against Staphylococcus warneri, 0.006 µg/mL (≈ 0.0113 µM); in the assay on Mammaliicoccus lentus it was 0.012 µg/mL (≈ 0.0226 µM); against Staphylococcus aureus [2] it was 0.012 µg/mL (≈ 0.0226 µM); against Pseudomonas aeruginosa, greater than 100 µg/mL. Besides, the MIC was 0.012 µg/mL (≈ 0.0226 µM) against Staphylococcus aureus [3]; 0.195 µg/mL (≈ 0.367 µM) against Staphylococcus aureus [4]; greater than 100 µg/mL against Escherichia coli; 0.391 µg/mL (≈ 0.736 µM) in the assay with Micrococcus luteus; 0.049 µg/mL (≈ 0.0922 µM) against Staphylococcus aureus [5]; 0.195 µg/mL (≈ 0.367 µM) in [6]. Moreover, the results for the minimum inhibitory concentration (MIC) (against Bacillus subtilis; in assay [7]; in assay [8]) were 0.391 µg/mL (≈ 0.736 µM), 0.024 µg/mL (≈ 0.0452 µM) and 0.006 µg/mL (≈ 0.0113 µM), respectively. In addition, the midpoint of inhibition in [1], the IC50, lay at 21.8 µg/mL (≈ 41 µM).

`CC(=O)NC[C@H]1CN(c2ccc(N3CCN(c4nnc(-c5ncc([N+](=O)[O-])n5C)s4)CC3)c(F)c2)C(=O)O1`: the MIC in the assay on Klebsiella pneumoniae was 0.781 µg/mL (≈ 1.43 µM); against Staphylococcus xylosus, 0.049 µg/mL (≈ 0.0898 µM); against Staphylococcus warneri, 0.006 µg/mL (≈ 0.011 µM); in the assay with Mammaliicoccus lentus, 0.098 µg/mL (≈ 0.18 µM); in the assay on Staphylococcus aureus [2], 0.098 µg/mL (≈ 0.18 µM); against Pseudomonas aeruginosa, greater than 100 µg/mL. Further, the MIC is 0.024 µg/mL (≈ 0.044 µM) against Staphylococcus aureus [3]; 0.195 µg/mL (≈ 0.357 µM) against Staphylococcus aureus [4]; greater than 100 µg/mL with Escherichia coli; 0.195 µg/mL (≈ 0.357 µM) against Micrococcus luteus; 0.391 µg/mL (≈ 0.717 µM) against Staphylococcus aureus [5]; 0.195 µg/mL (≈ 0.357 µM) in assay [6]. The MIC against Bacillus subtilis is 0.098 µg/mL (≈ 0.18 µM); in [7], 0.024 µg/mL (≈ 0.044 µM); in [8] it was 0.024 µg/mL (≈ 0.044 µM). The compound further gave a half-maximal inhibitory concentration (IC50) in [1] greater than 200 µg/mL.

Regarding `CC(=O)NC[C@H]1CN(c2ccc(N3CCNCC3)c(F)c2)C(=O)O1`, the MIC against Klebsiella pneumoniae was 25 µg/mL (≈ 74.3 µM); in the assay on Staphylococcus xylosus, 3.12 µg/mL (≈ 9.29 µM); against Staphylococcus warneri it was 18 µg/mL (≈ 53.5 µM); against Mammaliicoccus lentus it was 12.5 µg/mL (≈ 37.2 µM); with Staphylococcus aureus [2] it was 12.5 µg/mL (≈ 37.2 µM); with Pseudomonas aeruginosa it was greater than 100 µg/mL. Further, the MIC with Staphylococcus aureus [3] was 25 µg/mL (≈ 74.3 µM); against Staphylococcus aureus [4], 12.5 µg/mL (≈ 37.2 µM); in the assay on Escherichia coli it was 50 µg/mL (≈ 149 µM); with Micrococcus luteus, 1.56 µg/mL (≈ 4.65 µM); in the assay with Staphylococcus aureus [5] it was 25 µg/mL (≈ 74.3 µM); in [6] it was 1.56 µg/mL (≈ 4.65 µM). Besides, the MIC was found to be 12.5 µg/mL (≈ 37.2 µM) against Bacillus subtilis, 3.12 µg/mL (≈ 9.29 µM) in [7] and 6.25 µg/mL (≈ 18.6 µM) in [8]. For the same compound, in assay [1], the IC50 was greater than 200 µg/mL.

In the case of `O=C(O)c1cn(C2CC2)c2cc(N3CCNCC3)c(F)cc2c1=O` [CIPROFLOXACIN], the MIC with Klebsiella pneumoniae amounted to 0.003 µg/mL (≈ 0.00905 µM); against Staphylococcus xylosus, 0.391 µg/mL (≈ 1.18 µM); against Staphylococcus warneri it was 0.195 µg/mL (≈ 0.589 µM); against Mammaliicoccus lentus, 0.781 µg/mL (≈ 2.36 µM); in the assay with Staphylococcus aureus [2], 0.195 µg/mL (≈ 0.589 µM); in the assay with Pseudomonas aeruginosa, 0.0391 µg/mL (≈ 0.118 µM). The MIC was found to be 0.391 µg/mL (≈ 1.18 µM) in the assay on Staphylococcus aureus [3]; 0.391 µg/mL (≈ 1.18 µM) with Staphylococcus aureus [4]; 3.12 µg/mL (≈ 9.43 µM) against Micrococcus luteus; 0.391 µg/mL (≈ 1.18 µM) in the assay with Staphylococcus aureus [5]; 0.391 µg/mL (≈ 1.18 µM) in [6]; 0.195 µg/mL (≈ 0.589 µM) with Bacillus subtilis. Further, the MIC was found to be 0.098 µg/mL (≈ 0.296 µM) in assay [7] and 0.391 µg/mL (≈ 1.18 µM) in [8].

For the compound `CC(=O)NC[C@H]1CN(c2ccc(N3CCOCC3)c(F)c2)C(=O)O1` [LINEZOLID], the minimal inhibitory concentration (MIC) with Klebsiella pneumoniae is 6.25 µg/mL (≈ 18.5 µM); against Staphylococcus xylosus, 0.781 µg/mL (≈ 2.32 µM); in the assay with Staphylococcus warneri it was 0.781 µg/mL (≈ 2.32 µM); in the assay on Mammaliicoccus lentus, 1.56 µg/mL (≈ 4.63 µM); with Staphylococcus aureus [2], 0.781 µg/mL (≈ 2.32 µM); with Pseudomonas aeruginosa, greater than 100 µg/mL. Further, the MIC against Staphylococcus aureus [3] is 0.781 µg/mL (≈ 2.32 µM); with Staphylococcus aureus [4] it was 0.781 µg/mL (≈ 2.32 µM); against Escherichia coli, greater than 100 µg/mL; in the assay with Micrococcus luteus it was 0.781 µg/mL (≈ 2.32 µM); in the assay with Staphylococcus aureus [5] it was 0.781 µg/mL (≈ 2.32 µM); in assay [6], 0.781 µg/mL (≈ 2.32 µM). In addition, the minimum inhibitory concentration (MIC) against Bacillus subtilis worked out at 0.391 µg/mL (≈ 1.16 µM); in [7], 0.781 µg/mL (≈ 2.32 µM); in assay [8] it was 0.781 µg/mL (≈ 2.32 µM).
